Assays:
Escherichia coli [1] = experiment: Potentiation of aztreonam-induced antibacterial activity against Escherichia coli 1010 producing CMY-6 assessed as concentration required to reduce aztreonam MIC to 4 ug/ml by CLSI based broth microdilution method; assay type: functional
Klebsiella pneumoniae [2] = experiment: Potentiation of aztreonam-induced antibacterial activity against Klebsiella pneumoniae 1009 producing class A CTX-M-14 assessed as concentration required to reduce aztreonam MIC to 4 ug/ml by CLSI based broth microdilution method; assay type: functional
Klebsiella pneumoniae [3] = experiment: Potentiation of aztreonam-induced antibacterial activity against Klebsiella pneumoniae 1004 producing KPC assessed as concentration required to reduce aztreonam MIC to 4 ug/ml by CLSI based broth microdilution method; assay type: functional
Escherichia coli [4] = experiment: Potentiation of aztreonam-induced antibacterial activity against Escherichia coli 302 producing TEM-10 assessed as concentration required to reduce aztreonam MIC to 4 ug/ml by CLSI based broth microdilution method; assay type: functional
Escherichia coli [5] = experiment: Potentiation of aztreonam-induced antibacterial activity against Escherichia coli 308 producing SHV-5 assessed as concentration required to reduce aztreonam MIC to 4 ug/ml by CLSI based broth microdilution method; assay type: functional
Enterobacter cloacae = experiment: Potentiation of aztreonam-induced antibacterial activity against Enterobacter cloacae 1002 producing AmpC assessed as concentration required to reduce aztreonam MIC to 4 ug/ml by CLSI based broth microdilution method; assay type: functional
[6] = Oral bioavailability in rat; assay type: ADME, organism-based; conditions: in vivo
[7] = AUC in rat at 30 mg/kg, po measured upto 24 hrs by HPLC-MS analysis; assay type: ADME, organism-based; parameters: dose 30 mg/kg, time < 24 hrs, route po; conditions: in vivo
[8] = AUC in rat at 30 mg/kg administered as iv infusion for 0.5 hrs and measured upto 24 hrs by HPLC-MS analysis; assay type: ADME, organism-based; parameters: time < 24.5 hrs, dose 30 mg/kg, route iv; conditions: in vivo
[9] = AUC in rat at 300 mg/kg administered as iv infusion for 0.5 hrs and measured upto 24 hrs by HPLC-MS analysis; assay type: ADME, organism-based; parameters: time < 24.5 hrs, dose 300 mg/kg, route iv; conditions: in vivo
[10] = Oral bioavailability in rat at 30 mg/kg measured upto 24 hrs by HPLC-MS analysis; assay type: ADME, organism-based; conditions: in vivo
[11] = AUC in rat at 100 mg/kg administered as iv infusion for 0.5 hrs and measured upto 24 hrs by HPLC-MS analysis; assay type: ADME, organism-based; parameters: dose 100 mg/kg, time < 24.5 hrs, route iv; conditions: in vivo
[12] = Oral bioavailability in rat at 100 mg/kg measured upto 24 hrs by HPLC-MS analysis; assay type: ADME, organism-based; conditions: in vivo
[13] = AUC in rat at 300 mg/kg, po measured upto 24 hrs by HPLC-MS analysis; assay type: ADME, organism-based; parameters: dose 300 mg/kg, time < 24 hrs, route po; conditions: in vivo
[14] = Oral bioavailability in rat at 300 mg/kg measured upto 24 hrs by HPLC-MS analysis; assay type: ADME, organism-based; conditions: in vivo
[15] = AUC in rat at 100 mg/kg, po measured upto 24 hrs by HPLC-MS analysis; assay type: ADME, organism-based; parameters: time < 24 hrs, dose 100 mg/kg, route po; conditions: in vivo
Klebsiella pneumoniae [16] = experiment: microbe, parasite or virus in culture; conditions: 1004
Escherichia coli [17] = experiment: microbe, parasite or virus in culture; conditions: 302
Escherichia coli [18] = experiment: microbe, parasite or virus in culture; conditions: 1010
Escherichia coli [19] = experiment: microbe, parasite or virus in culture; conditions: 308
Klebsiella pneumoniae [20] = experiment: microbe, parasite or virus in culture; conditions: 1009

Row | SMILES | EC (Escherichia coli [1]) | EC (Klebsiella pneumoniae [2]) | EC (Klebsiella pneumoniae [3]) | EC (Escherichia coli [4]) | EC (Escherichia coli [5]) | EC (Enterobacter cloacae) | also measured
1 | O=C(O)C[C@H]1C=CC[C@H](NC(=O)Cc2cccs2)B(O)O1 | 10 µg/mL | 5 µg/mL | 10 µg/mL | 5 µg/mL | 1.25 µg/mL | 2.5 µg/mL | –
2 | O=C(O)CC1C=CC[C@H](NC(=O)Cc2cccs2)B(O)O1 (stereo partly drawn) | 20 µg/mL | 10 µg/mL | 20 µg/mL | 10 µg/mL | 2.5 µg/mL | 10 µg/mL | –
3 | O=C(Cc1cccs1)N[C@H]1CC=C[C@@H]2CC(=O)OB1O2 | – | – | – | – | – | – | bioavailability [6]: 48%
4 | Nc1nnc(SCC(=O)N[C@H]2CC=C[C@H](CC(=O)O)OB2O)s1 | 1.25 µg/mL | 2.5 µg/mL | 5 µg/mL | 5 µg/mL | 1.25 µg/mL | 0.6 µg/mL | –
5 | COC(=O)N1CC(CC(=O)O)OB(O)[C@@H](NC(=O)Cc2cccs2)C1 (stereo partly drawn) | 20 µg/mL | 10 µg/mL | 40 µg/mL | 20 µg/mL | 2.5 µg/mL | – | –
6 | O=C(O)CC1CCC[C@H](NC(=O)Cc2cccs2)B(O)O1 (stereo partly drawn) | 10 µg/mL | 10 µg/mL | 20 µg/mL | >40 µg/mL | 10 µg/mL | 10 µg/mL | –
7 | O=C(O)C[C@@H]1C=CC[C@H](NC(=O)Cc2cccs2)B(O)O1 | 40 µg/mL | 20 µg/mL | 40 µg/mL | >40 µg/mL | 10 µg/mL | 10 µg/mL | –
8 | CSCC(=O)N[C@H]1CC=C[C@H](CC(=O)O)OB1O | 5 µg/mL | 2.5 µg/mL | 10 µg/mL | 5 µg/mL | 1.25 µg/mL | 1.25 µg/mL | –
9 | CC(=O)N1CC(CC(=O)O)OB(O)[C@@H](NC(=O)Cc2cccs2)C1 (stereo partly drawn) | 10 µg/mL | 5 µg/mL | 40 µg/mL | 20 µg/mL | 1.25 µg/mL | 20 µg/mL | –
10 | CSCC(=O)N[C@H]1CC=C[C@H](CC(=O)[O-])OB1O.[Na+] | – | – | – | – | – | – | AUC at 24 h [7]: 2600 ng·h/mL; AUC at 24.5 h [8]: 28100 ng·h/mL; AUC at 24.5 h [9]: 276000 ng·h/mL; bioavailability [10]: 9.3%; AUC at 24.5 h [11]: 79400 ng·h/mL
11 | O=C(O)C[C@H]1C=CC[C@H](NC(=O)c2cccnc2)B(O)O1 | 1.25 µg/mL | 5 µg/mL | 10 µg/mL | 1.25 µg/mL | 2.5 µg/mL | 1.25 µg/mL | –
12 | CSCC(=O)N[C@H]1CC=C[C@@H]2CC(=O)OB1O2 | – | – | – | – | – | – | bioavailability [12]: 69.3%; AUC at 24 h [13]: 179000 ng·h/mL; bioavailability [14]: 64.9%; AUC at 24 h [7]: 14600 ng·h/mL; AUC at 24 h [15]: 55000 ng·h/mL; bioavailability [10]: 52%
13 | O=C(O)CC1COC[C@H](NC(=O)Cc2cccs2)B(O)O1 (stereo partly drawn) | 10 µg/mL | 5 µg/mL | 40 µg/mL | 20 µg/mL | 5 µg/mL | 10 µg/mL | –
14 | C[C@H]1[C@H](NC(=O)/C(=N\OC(C)(C)C(=O)O)c2csc(N)n2)C(=O)N1S(=O)(=O)O [AZTREONAM] | – | – | – | – | – | – | MIC (Klebsiella pneumoniae [16]): > 64 µg/mL; MIC (Escherichia coli [17]): > 64 µg/mL; MIC (Escherichia coli [18]): > 64 µg/mL; MIC (Escherichia coli [19]): > 64 µg/mL; MIC (Klebsiella pneumoniae [20]): > 64 µg/mL
15 | O=C(O)C[C@@H]1CC[C@H](NC(=O)Cc2cccs2)B(O)O1 [VABORBACTAM] | 20 µg/mL | >40 µg/mL | 1.25 µg/mL | >40 µg/mL | >40 µg/mL | 20 µg/mL | bioavailability [6]: < 10%

From ChEMBL document CHEMBL5143649, “Broad-spectrum cyclic boronate β-lactamase inhibitors featuring an intramolecular prodrug for oral bioavailability” (Bioorg Med Chem, 2022)
